{"source": "paper PMC10960464", "about": "“In vivo antimalarial effect of 1-hydroxy-5,6,7-trimethoxyxanthone isolated from Mammea siamensis T. Anders. flowers: pharmacokinetic and acute toxicity studies” (BMC Complementary Medicine and Therapies, 2024)", "key": {"[1]": {"tested_on": "P. falciparum chloroquine-resistant (FCR3) strain", "conditions": "cited from earlier work"}, "[2]": {"experiment": "In vivo pharmacokinetic study after intraperitoneal administration, plasma LC-MS/MS", "conditions": "5 mg/kg intraperitoneal, ICR mice, n = 5", "experimental": "A pharmacokinetic study was conducted in non-infected ICR mice aged 6–8 weeks and weighing 25–35 g. Male ICR mice were randomly divided into two groups, each consisting of five mice. The first group is a negative control group and was injected with 150 µL of 2% DMSO in NSS, whereas the second group is a test group that was administered 5 mg/kg body weight of HTX compound intraperitoneally. Blood ([…]) was taken from the tail vein prior to administration of test compounds (0 h) and after at, 0.5, 1, 2, 3, 5, 8, 24, 48, and 72 h. Blood samples were collected in microtubes containing ethylenediaminetetraacetic acid (EDTA) and kept on ice until they were centrifuged at 3,000 × g for 10 min at 4 °C to allow the collection of plasma, which was stored at − 80 °C.\nLC-MS/MS (Agilent 1290 infinity LC and Agilent 6490 triple quadrupole mass spectrometer) with an electrospray ionization (ESI, Agilent Technologies, USA) source was used to detect HTX in the plasma. Using a VertiSepTM USP C18 column (4.6 mm × 150 mm, particle size = 5 μm; Vertical Chromatography Co., ltd., Nonthaburi, Thailand), the separation was achieved. Acetonitrile:1 mM formic acid (7:3) was used as the mobile phase and was maintained at a constant flow rate of 0.5 mL/min. The injection volume was 1 µL, and column temperature was maintained at 30 °C. The following operating conditions for the MS were optimized: the source temperature was kept at 200 °C, the ion spray voltage for the positive mode was set at 3 KV, and the collision energy for HTX was set at 43 V. Nitrogen was used as the collision gas. The nebulizer and sheath gas flow rates were set to 14 and 11 L/min, respectively. The MassHunter qualitative analysis software was used to acquire the data (Agilent Technologies, Inc. Headquarters, CA, USA). HTX was quantified using the transitions for HTX at m/z 303→199 in the multiple reaction monitoring (MRM) mode.\nBy dissolving precisely weighed HTX and reference compounds in acetonitrile, stock HTX solutions were prepared. By diluting the stock solutions using a mixture of acetonitrile and water (2:8, v/v), a series of working solutions with concentrations between 7.81 and 1000 ng/mL were prepared. All solutions were stored at 4 °C. By spiking the blank plasma (50 µL) with 25 µL of standard working solutions, HTX calibration standards (0.78, 1.56, 3.13, 6.25, 12.5, 25.0, 50, 125, and 250 ng/mL) were prepared. The extraction solvent ethyl acetate (0.5 mL) was added to 75 µL of HTX-spiked plasma. The sample was vortexed for 1 min, followed by ultrasonic vibration for 15 min. Then, centrifugation for 10 min at 15,000 × g was done. The upper organic layer was transferred to a new microtube and dried via evaporation. The dried extract was reconstituted in 150 µL of 50% (v/v) acetonitrile in water. HTX recovery experiments were performed to confirm extraction efficacy. The effectiveness of liquid-liquid extraction was then determined by comparing the peak regions of the extracted HTX-spiked plasma with those of HTX spiked with blank plasma extract.\nThe plasma concentration-time profiles of HTX were determined by non-compartmental analysis with PKSolver 2.0 software. […] Additionally, the apparent volume of the central or plasma compartment, apparent volume of the peripheral compartment, transfer rate constant from the central compartment to the peripheral compartment, and transfer rate constant from the peripheral to central compartment were calculated using the two-compartment model."}, "non-infected ICR mice": {"tested_on": "non-infected ICR mice", "experiment": "Acute toxicity test, single intraperitoneal dose, 14-day observation, liver and kidney biochemical parameters", "assay_type": "in vivo", "experimental": "(§1) Acute HTX toxicity was determined in non-infected ICR mice aged 6–8 weeks and weighing 25–35 g using the Organization for Economic Cooperation and Development standard criteria. Fifteen mice were randomly divided into three groups (n = 5): untreated, negative control, and HTX-treated. All mice fasted for three hours prior to the experiment, and only drinking water was available. HTX was dissolved in 2% DMSO in NSS at 50 mg/kg body weight. In the treatment group, the first mouse was intraperitoneally given a single dose of 50 mg/kg body weight HTX, whereas in the negative control group, the first mouse was intraperitoneally given 200 µL of 2% DMSO in NSS. […] All mice were anaesthetized using pentobarbital (60 mg/kg body weight) by intraperitoneal injection. Blood samples were collected via cardiac puncture into heparinized tubes for biochemical analyses. The liver and kidney tissues were collected for histological examination. The mice were subsequently euthanized with an intraperitoneal injection of pentobarbital (200 mg/kg body weight)."}, "[3]": {"tested_on": "Plasmodium falciparum K1 strain", "conditions": "P. falciparum K1 strain (chloroquine-resistant), in vitro; read-out: IC50, antiplasmodial activity; cited from earlier work"}, "[4]": {"tested_on": "liver and kidney tissues of ICR mice", "experiment": "Histopathological examination of liver and kidney tissues (H&E) in the acute toxicity test", "assay_type": "in vivo", "conditions": "50 mg/kg single intraperitoneal dose", "experimental": "as §1\n[…]. In brief, all tissues were fixed in 10% buffered formalin, dehydrated using a gradient series of ethanol solutions, cleaned with xylene, and deposited in a paraffin mold. The paraffin blocks were then sectioned to a thickness of 5 μm using a rotary microtome, transferred to glass slides, and stained with hematoxylin and eosin (H&E) solution. […]"}, "[5]": {"tested_on": "Plasmodium berghei ANKA strain", "experiment": "In vivo 4-day suppressive test of P. berghei in ICR mice", "set-up": "species or system Plasmodium berghei (in ICR mice)", "conditions": "mean ± SEM, n = 5", "experimental": "Wild-type P. berghei ANKA strain was obtained from Thomas F. McCutchan (BEI Resources, NIAID, NIH). P. berghei-infected red blood cells were administered intraperitoneally to donor mice. When parasitemia levels reached 20–30%, blood was collected from the heart using a cardiac puncture procedure and placed in a vacutainer heparinized tube for injection into experimental animals.\nA 4-day suppressive test was used to measure the schizonticidal activity of HTX in P. berghei-infected ICR mice. This test was performed according to a previous method, with some modifications. All mice were intraperitoneally injected with 1 × 10^7P. berghei ANKA-parasitized erythrocytes. Treatment was initiated four hours after the mice were infected with Plasmodium parasite on the first day (D0). […] For each experimental group, animals received daily intraperitoneal doses of 1, 3, or 10 mg/kg body weight of HTX. Mice received each substance daily for 4 days (D0-D3). On the fifth day (D4), parasitemia was determined using Giemsa-stained thin blood smears prepared from the tails of each mouse. Mice were euthanized at the end of the experiment by intraperitoneal injection of pentobarbital (200 mg/kg body weight).\nFinally, the percentage suppression of parasite growth was calculated using the following equation: [drawing 1]"}, "[6]": {"conditions": "cited from earlier work"}, "[7]": {"conditions": "1 mg/kg intraperitoneal daily D0-D3, read on D4, P. berghei-infected ICR mice"}, "[8]": {"conditions": "3 mg/kg intraperitoneal daily D0-D3, read on D4, P. berghei-infected ICR mice"}, "[9]": {"conditions": "10 mg/kg intraperitoneal daily D0-D3, read on D4, P. berghei-infected ICR mice"}}, "note": "Where “and” joins values, the source holds several entries; their conditions need not be identical. Identical values can stand only once. Entries after “also recorded” stand apart in the source; their conditions may differ. Like-named read-outs stand apart in the source and are kept apart here."}
{"smiles": "COc1c(O)cc2oc3cc(O)c(CC=C(C)C)c(O)c3c(=O)c2c1CC=C(C)C", "note": "[Α-Mangostin]", "values": [{"measurement": "IC50", "setting": "[1]", "value": 200, "unit": "nM"}]}
{"smiles": "COc1cc2c(=O)c3c(O)cccc3oc2c(OC)c1OC", "note": "[HTX, 1-hydroxy-5,6,7-trimethoxyxanthone]", "values": [{"measurement": "CL/F", "setting": "[2]; plasma", "value": "0.020 ± 0.002 (mg/kg)/(ng/mL)/h"}, {"measurement": "MRT0−∞", "setting": "[2]; plasma", "value": "14.79 h and 14.795 ± 0.515 h"}, {"measurement": "Vz/F", "setting": "[2]; plasma", "value": "0.405 ± 0.014 (mg/kg)/(ng/mL)"}, {"measurement": "t1/2 (elimination half-life)", "setting": "[2]; plasma", "value": "13.881 ± 1.231", "unit": "h"}, {"measurement": "K21 (rate constant, peripheral to central compartment)", "setting": "[2]; two-compartment model", "value": "0.156 ± 0.002", "unit": "h⁻¹"}, {"measurement": "V1 (apparent volume, central or plasma compartment)", "setting": "[2]; two-compartment model", "value": "1.633 ± 0.003 (mg/kg)/(ng/mL)"}, {"measurement": "V2 (apparent volume, peripheral compartment)", "setting": "[2]; two-compartment model", "value": "19.808 ± 2.031 (mg/kg)/(ng/mL)"}, {"measurement": "MRT inf", "setting": "[2]; male, ICR, mouse, plasma, ip, 5 mg/kg, plasma, read-out: MRT0−∞", "value": 14.8, "unit": "h"}, {"measurement": "half-life", "setting": "[2]; male, ICR, mouse, plasma, ip, 5 mg/kg, plasma, read-out: t1/2 (elimination half-life) (converted)", "value": 833, "unit": "min"}, {"measurement": "Cmax", "setting": "[2]; male, mouse, ip, plasma", "value": "94 ± 3.21", "unit": "ng/mL"}, {"measurement": "Tmax", "setting": "[2]; male, mouse, ip, plasma", "value": "30 ± 1.26", "unit": "min"}, {"measurement": "AUC(0-inf)", "setting": "[2]; male, mouse, ip, plasma, non-compartmental", "value": "247 ± 5.33", "unit": "ng·h/mL"}, {"measurement": "AUC(0-t)", "setting": "[2]; male, mouse, ip, plasma, non-compartmental, read-out: AUC0 − 48 h", "value": "226 ± 4.74", "unit": "ng·h/mL"}, {"measurement": "mortality", "setting": "non-infected ICR mice; 50 mg/kg single intraperitoneal dose, 24 h and following 14 days", "value": "No mortality; also recorded: all treated mice were alive; also recorded: did not cause mortality; also recorded: no behavioral changes or mortality"}, {"measurement": "effect on biochemical parameters of the liver and kidney functions", "setting": "non-infected ICR mice; 50 mg/kg single intraperitoneal dose, versus untreated and negative controls", "value": "no significant alterations; also recorded: did not affect the liver and kidney functions"}, {"measurement": "median lethal dose (LD50)", "setting": "non-infected ICR mice; intraperitoneal, single dose, 14 days", "value": "greater than 50 mg/kg body weight"}, {"measurement": "IC50", "setting": "[3]", "value": 9.57, "unit": "µM"}, {"measurement": "kidney histology (H&E)", "setting": "[4]", "value": "no histological changes; also recorded: normal; also recorded: did not present with lesions"}, {"measurement": "liver histology (H&E)", "setting": "[4]", "value": "no histological changes; also recorded: normal hepatocyte histology"}, {"measurement": "% parasitemia", "setting": "[5]; [7]", "value": "21.91 ± 2.25", "unit": "%"}, {"measurement": "% suppression", "setting": "[5]; [7]", "value": "34.56% and 34.56 ± 4.91 ^a, b, d, e %"}, {"measurement": "% parasitemia", "setting": "[5]; [8]", "value": "17.79 ± 2.31", "unit": "%"}, {"measurement": "% suppression", "setting": "[5]; [8]", "value": "46.88% and 46.88 ± 3.96 ^a, b, c, e %"}, {"measurement": "% parasitemia", "setting": "[5]; [9]", "value": "8.62 ± 1.21", "unit": "%"}, {"measurement": "% suppression", "setting": "[5]; [9]", "value": "74.26% and 74.26 ± 3.32 ^a, b, c, d %"}]}
{"smiles": "C[C@H]1[C@H](OC(=O)CCC(=O)O)O[C@@H]2O[C@@]3(C)CC[C@H]4[C@H](C)CC[C@@H]1[C@@]24OO3", "note": "[Artesunate, reference compound]", "values": [{"measurement": "elimination half-life", "setting": "[6]; in vivo", "value": "48 to 72", "unit": "min"}, {"measurement": "% parasitemia", "setting": "[5]; [8]", "value": "3.84 ± 0.54", "unit": "%"}]}
{"smiles": "CC(C)(N)CNC(=O)C[C@H]1CC[C@]2(CC1)OO[C@]1(O2)C2CC3CC(C2)CC1C3", "note": "[arterolane]", "values": [{"measurement": "elimination half-life", "setting": "[6]; in vivo", "value": "120 to 240", "unit": "min"}]}
{"smiles": "C[C@H]1[C@@H](O)O[C@@H]2O[C@@]3(C)CC[C@H]4[C@H](C)CC[C@@H]1[C@@]24OO3", "note": "[dihydroartemisinin]", "values": [{"measurement": "elimination half-life", "setting": "[6]", "value": "54 to 120", "unit": "min"}]}
{"smiles": "CCN(CC)CCCC(C)Nc1ccnc2cc(Cl)ccc12", "note": "(stereo not drawn) [Chloroquine, reference compound]", "values": [{"measurement": "% parasitemia", "setting": "[5]; [8]", "value": "3.42 ± 0.35", "unit": "%"}, {"measurement": "% suppression", "setting": "[5]; [8]", "value": "92.07 ± 4.21 ^c, d, e %"}, {"measurement": "% suppression", "setting": "[5]; 3 mg/kg intraperitoneal daily D0-D3, read on D4, P. berghei-infected ICR mice, listed as chloroquine", "value": 92.07, "unit": "%"}]}
